Measured values: US10858365B2, “Triazolo-pyrimidine compounds and uses thereof” (Dizal (Jiangsu) Pharmaceutical Co., Ltd., priority 2018, dated 2020)

What was measured:
Format in all cases: cell-based
hA2b = hA2b (Homo sapiens (Human), UniProt P29275); experiment: cAMP inhibition assay in hA2b/CHO cells; settings: adenosine stimulation, read-out: cAMP & FLIPR IC50 (nM) hA2b
Method: (§1) hA2a/CHO, hA2b/CHO and mA2a/CHO (Genscript) were plated at 5×10^3 cells/well into 384-well polystyrene plates at the day of experiment. Compounds were pre-incubated with cells for 30 min at 37° C., 5% CO2. Then […] adenosine was added to the cells and incubated for 30 min at 37° C., 5% CO2. Detection reagent (CISBIO) was added and the plates were incubated for 60 min at room temperature. The signal was captured by Envision.

hA1 = hA1 (Homo sapiens (Human), UniProt P30542); experiment: FLIPR inhibition assay in hADORA1/CHO (hA1 expressing) cells; settings: hADORA1/CHO cells, FLIPR calcium, adenosine stimulation; read-out: cAMP & FLIPR IC50 (nM) hA1
Outline: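 CHO cells expressing human A1 were plated at 1×10^4 cells/well the day before, then loaded with FLIPR Calcium 5 dye for 60 min at 37 °C, 5% CO2. Compounds were added at several concentrations for 400 s before stimulation with […] adenosine. The calcium signal was recorded by FLIPR.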

mA2a = mA2a (Mus musculus (Mouse), UniProt Q60613); experiment: cAMP inhibition assay in mA2a/CHO cells; settings: adenosine stimulation, read-out: cAMP & FLIPR IC50 (nM) mA2a
Method: as §1

hA2a = hA2a (Homo sapiens (Human), UniProt P29274); experiment: cAMP inhibition assay in hA2a/CHO cells; settings: adenosine stimulation, read-out: cAMP & FLIPR IC50 (nM) hA2a
Outline: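 CHO cells expressing human A2a, human A2b or mouse A2a, 5×10^3 cells/well, pre-incubated with compound 30 min at 37 °C, then stimulated with […] adenosine 30 min at 37 °C. cAMP read after 60 min room-temperature incubation with detection reagent.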

mA2a, sequence (Q60613 whole entry): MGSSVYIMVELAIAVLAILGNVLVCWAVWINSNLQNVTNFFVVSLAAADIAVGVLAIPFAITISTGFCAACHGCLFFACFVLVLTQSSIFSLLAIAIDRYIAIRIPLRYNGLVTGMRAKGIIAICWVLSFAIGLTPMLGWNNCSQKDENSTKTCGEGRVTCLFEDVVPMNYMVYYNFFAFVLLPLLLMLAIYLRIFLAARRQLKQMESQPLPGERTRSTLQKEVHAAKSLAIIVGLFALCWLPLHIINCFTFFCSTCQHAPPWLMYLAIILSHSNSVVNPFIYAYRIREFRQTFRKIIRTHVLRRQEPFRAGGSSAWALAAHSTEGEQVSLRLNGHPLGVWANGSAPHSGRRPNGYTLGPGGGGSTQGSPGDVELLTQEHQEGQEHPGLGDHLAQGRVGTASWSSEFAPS
hA2a, sequence (P29274 whole entry): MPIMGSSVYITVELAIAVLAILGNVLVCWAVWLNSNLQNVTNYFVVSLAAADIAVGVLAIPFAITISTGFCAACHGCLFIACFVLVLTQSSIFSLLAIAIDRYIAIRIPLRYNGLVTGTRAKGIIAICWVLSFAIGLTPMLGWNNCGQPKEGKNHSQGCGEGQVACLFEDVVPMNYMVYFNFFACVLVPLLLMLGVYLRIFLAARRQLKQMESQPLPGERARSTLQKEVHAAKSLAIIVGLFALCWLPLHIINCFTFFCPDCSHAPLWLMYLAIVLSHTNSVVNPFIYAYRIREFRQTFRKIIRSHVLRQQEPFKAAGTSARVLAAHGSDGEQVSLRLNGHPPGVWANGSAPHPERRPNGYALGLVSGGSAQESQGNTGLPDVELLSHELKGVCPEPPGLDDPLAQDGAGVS
hA1, sequence (P30542 whole entry): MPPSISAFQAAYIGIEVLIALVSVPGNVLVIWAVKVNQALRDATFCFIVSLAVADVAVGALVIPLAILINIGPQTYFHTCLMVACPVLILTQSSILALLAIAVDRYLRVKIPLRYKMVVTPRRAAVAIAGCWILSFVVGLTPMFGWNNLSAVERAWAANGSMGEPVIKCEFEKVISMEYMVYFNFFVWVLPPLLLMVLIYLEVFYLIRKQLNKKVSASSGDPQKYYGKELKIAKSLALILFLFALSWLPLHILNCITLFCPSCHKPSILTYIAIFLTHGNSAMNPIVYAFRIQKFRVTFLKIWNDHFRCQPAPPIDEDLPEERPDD
hA2b, sequence (P29275 whole entry): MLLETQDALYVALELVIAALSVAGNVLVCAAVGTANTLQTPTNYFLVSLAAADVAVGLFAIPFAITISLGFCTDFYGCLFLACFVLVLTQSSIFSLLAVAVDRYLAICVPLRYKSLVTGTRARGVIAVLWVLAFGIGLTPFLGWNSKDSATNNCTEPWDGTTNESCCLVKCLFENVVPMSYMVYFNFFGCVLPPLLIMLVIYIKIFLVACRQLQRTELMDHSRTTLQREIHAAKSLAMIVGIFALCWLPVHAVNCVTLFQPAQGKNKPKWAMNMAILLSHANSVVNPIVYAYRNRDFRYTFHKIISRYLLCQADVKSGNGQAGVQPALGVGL

How did the IC50 (hA2b) turn out when `Nc1nc(-c2ccc(F)cc2)c(-c2ccc(=O)n(C3CC3)c2)c2nc(Cc3ncccc3F)nn12` [Example 36, 5-(5-amino-7-(4-fluorophenyl)-2-((3-fluoropyridin-2-yl)methyl)-[1,2,4]triazolo[1,5-c]pyrimidin-8-yl)-1-cyclopropylpyridin-2(1H)-one] was run?
Its IC50 is 408 nM.

What about the IC50 (hA1) of the same molecule?
Its IC50 is 45 nM.

What about the IC50 (mA2a) of the same molecule?
The IC50 was 31 nM.

What about the IC50 (hA2a) of the same molecule?
The IC50 was 20 nM.

What does the source list for `Cc1cc(-c2c(-c3ccc(F)cc3)nc(N)n3nc(Cc4cccc(Cl)n4)nc23)ccn1` [Example 15, 2-[(6-chloropyridin-2-yl)methyl]-7-(4-fluorophenyl)-8-(2-methylpyridin-4-yl)-[1,2,4]triazolo[1,5-c]pyrimidin-5-amine]?
IC50 (hA2b): 582 nM; IC50 (hA1): 27 nM; IC50 (mA2a): 88 nM; IC50 (hA2a): 46 nM

For `Cc1cnc2ccc(-c3c(N4CCC5(COC5)C4)nc(N)n4nc(Cc5ncccc5F)nc34)cn12` [Example 110, 2-((3-fluoropyridin-2-yl)methyl)-8-(3-methylimidazo[1,2-a]pyridin-6-yl)-7-(2-oxa-6-azaspiro[3.4]octan-6-yl)-[l,2,4]triazolo[l,5-c]pyrimidin-5-amine], which IC50 (hA2b) is on record?
The IC50 was greater than 10000 nM.

And the IC50 (hA1)?
Its IC50 is 85.9 nM.

What about the IC50 (mA2a) of the same molecule?
Its IC50 is 7190 nM.

What about the IC50 (hA2a) of the same molecule?
Its IC50 is 795 nM.

What does the source list for `Cc1cnc2ccc(-c3c(-n4ccc(F)n4)nc(N)n4nc(Cc5ncccc5F)nc34)cn12` [Example 116, 7-(3-fluoro-1H-pyrazol-1-yl)-2-((3-fluoropyridin-2-yl)methyl)-8-(3-methylimidazo[l,2-a]pyridin-6-yl)-[l,2,4]triazolo[l,5-c]pyrimidin-5-amine]?
IC50 (hA2b): 12.2 nM; IC50 (hA1): 7.9 nM; IC50 (mA2a): 0.2 nM; IC50 (hA2a): 0.2 nM

With `Nc1nc(-c2ccc(F)cc2)c(-c2ccnc(C(F)(F)F)c2)c2nc(Cc3c(F)cccc3F)nn12` [Example 4, 2-[(2,6-difluorophenyl)methyl]-7-(4-fluorophenyl)-8-[2-(trifluoromethyl)pyridin-4-yl]-[1,2,4]triazolo[1,5-c]pyrimidin-5-amine] as the molecule, how does the IC50 (hA2b) read?
The IC50 was 254 nM.

What about the IC50 (hA1) of the same molecule?
Its IC50 is 511 nM.

What about the IC50 (mA2a) of the same molecule?
The IC50 was 24 nM.

And the IC50 (hA2a)?
Its IC50 is 52 nM.

With `Nc1nc(-c2ccc(F)cc2)c(-c2ccc(=O)n(C3CCOC3)c2)c2nc(Cc3c(F)cccc3F)nn12` (centres unmarked) [Example 23, 5-(5-amino-2-(2,6-difluorobenzyl)-7-(4-fluorophenyl)-[1,2,4]triazolo[1,5-c]pyrimidin-8-yl)-1-(tetrahydrofuran-3-yl)pyridin-2(1H)-one] as the molecule, how does the IC50 (hA2b) read?
Its IC50 is 2060 nM.

And the IC50 (hA1)?
The IC50 was 26 nM.

What about the IC50 (mA2a) of the same molecule?
The IC50 was 2.9 nM.

And the IC50 (hA2a)?
Its IC50 is 7.7 nM.

For `Cn1cc(-c2c(-c3ccccc3Cl)nc(N)n3nc(Cc4ncccc4F)nc23)ccc1=O` [Example 78, 5-(5-amino-7-(2-chlorophenyl)-2-((3-fluoropyridin-2-yl)methyl)-[1,2,4]triazolo[1,5-c]pyrimidin-8-yl)-l-methylpyridin-2(1H)-one], which IC50 (hA2b) is on record?
Its IC50 is 1260 nM.

What about the IC50 (hA1) of the same molecule?
The IC50 was 1160 nM.

And the IC50 (mA2a)?
The IC50 was 324 nM.

What about the IC50 (hA2a) of the same molecule?
The IC50 was 135 nM.

For `Cc1cnc2ccc(-c3c(N4CCC4)nc(N)n4nc(Cc5c(F)cccc5F)nc34)cn12` [Example 124, 7-(azetidin-l-yl)-2-(2,6-difluorobenzyl)-8-(3-methylimidazo[1,2-a]pyridin-6-yl)-[1,2,4]triazolo [1,5-c]pyrimidin-5-amine], which IC50 (hA2b) is on record?
Its IC50 is 23.3 nM.

And the IC50 (hA1)?
Its IC50 is 16 nM.

And the IC50 (mA2a)?
The IC50 was 3.9 nM.

And the IC50 (hA2a)?
Its IC50 is 0.1 nM.
